22 molecules from ChEMBL document CHEMBL3272261, “Aminobenzioc acid diuretics. 8.(2) 3, 4-Disubstituted 5-methylsulfonylbenzioc acids and related compounds” (1976) can be followed below.

Active and inactive are the calls of the source. The rule behind the calls is not given here.

The subject of assay [1] is Canis familiaris. The assay can be described thus: Diuretic activity in dog assessed as urine volume measured in water at 1 mg/kg, iv after 3 hrs. The format is functional.
Assay [2] concerns Canis familiaris. The assay can be described thus: Diuretic activity in dog assessed as urine volume measured in water at 0.25 mg/kg, iv after 3 hrs. The format is functional, Canis lupus familiaris.
The subject of assay [3] is Canis familiaris. The assay can be described thus: Saluretic activity in dog assessed as urinary excretion of sodium level at 0.25 mg/kg, iv after 3 hrs. The format is functional, Canis lupus familiaris, Urine.
Assay [4] relates to Canis familiaris. The assay can be described thus: Saluretic activity in dog assessed as urinary excretion of potassium level at 0.25 mg/kg, iv after 3 hrs. The class given is functional, Canis lupus familiaris, Urine.
The subject of assay [5] is Canis familiaris. In words: Saluretic activity in dog assessed as urinary excretion of chloride level at 0.25 mg/kg, iv after 3 hrs. The format is functional, Canis lupus familiaris, Urine.
Assay [6] has as its system Canis familiaris. In words: Saluretic activity in dog assessed as urinary excretion of sodium level at 1 mg/kg, iv after 3 hrs. The format is functional, Canis lupus familiaris, Urine.
The subject of assay [7] is Canis familiaris. In words: Saluretic activity in dog assessed as urinary excretion of potassium level at 1 mg/kg, iv after 3 hrs. The format is functional, Canis lupus familiaris, Urine.
The subject of assay [8] is Canis familiaris. The assay can be described thus: Saluretic activity in dog assessed as urinary excretion of chloride level at 1 mg/kg, iv after 3 hrs. The class given is functional, Canis lupus familiaris, Urine.
For assay [9], the system named is Canis familiaris. The assay can be described thus: Diuretic activity in dog assessed as urine volume measured in water at 0.1 mg/kg, iv after 3 hrs. The class given is functional, Canis lupus familiaris.
The subject of assay [10] is Canis familiaris. In words: Saluretic activity in dog assessed as urinary excretion of sodium level at 0.1 mg/kg, iv after 3 hrs. The format is functional, Canis lupus familiaris, Urine.
Assay [11] deals with Canis familiaris. In words: Saluretic activity in dog assessed as urinary excretion of potassium level at 0.1 mg/kg, iv after 3 hrs. The class given is functional, Canis lupus familiaris, Urine.
The subject of assay [12] is Canis familiaris. In words: Saluretic activity in dog assessed as urinary excretion of chloride level at 0.1 mg/kg, iv after 3 hrs. The format is functional, Canis lupus familiaris, Urine.
In assay [13] the test system is Canis familiaris. The assay can be described thus: Diuretic activity in dog assessed as urine volume measured in water at 0.1 mg/kg, po after 3 hrs. The format is functional, Canis lupus familiaris.
The test system of assay [14] is Canis familiaris. The assay can be described thus: Saluretic activity in dog assessed as urinary excretion of sodium level at 0.1 mg/kg, po after 3 hrs. The class given is functional, Canis lupus familiaris, Urine.
Assay [15] concerns Canis familiaris. In words: Saluretic activity in dog assessed as urinary excretion of potassium level at 0.1 mg/kg, po after 3 hrs. The class given is functional, Canis lupus familiaris, Urine.
Assay [16] has as its system Canis familiaris. The assay can be described thus: Saluretic activity in dog assessed as urinary excretion of chloride level at 0.1 mg/kg, po after 3 hrs. The format is functional, Canis lupus familiaris, Urine.
Assay [17] has as its system Canis familiaris. The assay can be described thus: Diuretic activity in dog assessed as urine volume measured in water at 10 mg/kg, iv after 3 hrs. The settings on record: Canis lupus familiaris. The arrangement: dose 10 mg/kg. The format is functional, organism-based.
Assay [18] deals with Canis familiaris. The assay can be described thus: Diuretic activity in dog assessed as urine volume measured in water at 0.25 mg/kg, po after 3 hrs. The format is functional, Canis lupus familiaris.
The subject of assay [19] is Canis familiaris. In words: Saluretic activity in dog assessed as urinary excretion of sodium level at 0.25 mg/kg, po after 3 hrs. The class given is functional, Canis lupus familiaris, Urine.
The subject of assay [20] is Canis familiaris. The assay can be described thus: Saluretic activity in dog assessed as urinary excretion of potassium level at 0.25 mg/kg, po after 3 hrs. The format is functional, Canis lupus familiaris, Urine.
The test system of assay [21] is Canis familiaris. The assay can be described thus: Saluretic activity in dog assessed as urinary excretion of chloride level at 0.25 mg/kg, po after 3 hrs. The format is functional, Canis lupus familiaris, Urine.
Assay [22] deals with Canis familiaris. The assay can be described thus: Diuretic activity in dog assessed as urine volume measured in water at 0.01 mg/kg, iv after 3 hrs. The format is functional, Canis lupus familiaris.
Assay [23] has as its system Canis familiaris. The assay can be described thus: Saluretic activity in dog assessed as urinary excretion of sodium level at 0.01 mg/kg, iv after 3 hrs. The class given is functional, Canis lupus familiaris, Urine.
The test system of assay [24] is Canis familiaris. The assay can be described thus: Saluretic activity in dog assessed as urinary excretion of potassium level at 0.01 mg/kg, iv after 3 hrs. The class given is functional, Canis lupus familiaris, Urine.
Assay [25] concerns Canis familiaris. In words: Saluretic activity in dog assessed as urinary excretion of chloride level at 0.01 mg/kg, iv after 3 hrs. The class given is functional, Canis lupus familiaris, Urine.
Assay [26] relates to Canis familiaris. In words: Diuretic activity in dog assessed as urine volume measured in water at 1 mg/kg, po after 3 hrs. The class given is functional, Canis lupus familiaris.
Assay [27] has as its system Canis familiaris. In words: Saluretic activity in dog assessed as urinary excretion of sodium level at 1 mg/kg, po after 3 hrs. The class given is functional, Canis lupus familiaris, Urine.
Assay [28] has as its system Canis familiaris. The assay can be described thus: Saluretic activity in dog assessed as urinary excretion of potassium level at 1 mg/kg, po after 3 hrs. The format is functional, Canis lupus familiaris, Urine.
Assay [29] relates to Canis familiaris. The assay can be described thus: Saluretic activity in dog assessed as urinary excretion of chloride level at 1 mg/kg, po after 3 hrs. The format is functional, Canis lupus familiaris, Urine.

As to `CCCCNc1cc(C(=O)O)cc2c1C(c1ccccc1)=CS2(=O)=O`, in assay [1] (Canis lupus familiaris), the result was inactive.
In the case of `CS(=O)(=O)c1cc(C(=O)O)cc(NCc2ccccc2)c1Oc1ccccc1`, the Activity in [2] worked out at 21 mL/kg; in [3], 3 milliequivalent/kg; in assay [4], 0.99 milliequivalent/kg; in [5], 3.5 milliequivalent/kg; in assay [1], 31 mL/kg; in assay [6] it was 4.8 milliequivalent/kg. For the same molecule, the Activity in assay [7] was found to be 0.98 milliequivalent/kg; in assay [8], 5.1 milliequivalent/kg; in assay [9], 9 mL/kg; in assay [10], 1.1 milliequivalent/kg; in assay [11], 0.2 milliequivalent/kg; in assay [12] it was 1.4 milliequivalent/kg.
With `CS(=O)(=O)c1cc(C(=O)O)cc(OCc2ccccc2)c1C(=O)c1ccccc1`, the Activity in assay [13] amounted to 11 mL/kg; in assay [14] it was 1.2 milliequivalent/kg; in assay [15] it was 0.25 milliequivalent/kg; in assay [16] it was 1.7 milliequivalent/kg.
Turning to `CCCCNc1cc(C(=O)O)cc(S(C)(=O)=O)c1Oc1ccccc1`, the Activity is 15 mL/kg in assay [1]; 2.1 milliequivalent/kg in assay [6]; 0.22 milliequivalent/kg in assay [7]; 2.7 milliequivalent/kg in assay [8]; 3 mL/kg in assay [9]; 0.6 milliequivalent/kg in assay [10]. Besides, the figures for the Activity in assay [11] and in [12] were 0.19 milliequivalent/kg and 0.4 milliequivalent/kg, respectively.
In the case of `CS(=O)(=O)c1cc(C(=O)O)c(NCc2ccccc2)cc1Oc1ccccc1`, in assay [17], the result was inactive.
Turning to `CCCCNc1cc(C(=O)O)cc(S(C)(=O)=O)c1C(=O)c1ccccc1`, the Activity in assay [18] amounted to 9 mL/kg; in assay [19], 0.9 milliequivalent/kg; in [20] it was 0.19 milliequivalent/kg; in assay [21], 1.2 milliequivalent/kg.
As to `O=C(O)c1cc(NCc2ccccc2)c2c(c1)S(=O)(=O)C=C2c1ccccc1`, the outcome in assay [1] (Canis lupus familiaris) was inactive.
For the molecule `CS(=O)(=O)c1cc(C(=O)O)c(NCc2ccccc2)cc1Nc1ccccc1`, the result in [17] was inactive.
For `CS(=O)(=O)c1cc(C(=O)O)cc(NCc2ccccc2)c1Sc1ccccc1`, the Activity in assay [2] was determined as 6 mL/kg; in assay [3], 0.9 milliequivalent/kg; in [4], 0.18 milliequivalent/kg; in assay [5], 1 milliequivalent/kg; in assay [1], 17 mL/kg; in assay [6] it was 2 milliequivalent/kg. Further, the Activity in assay [7] is 0.28 milliequivalent/kg; in assay [8], 2.4 milliequivalent/kg.
Take `O=C(O)c1cc(NCc2ccccc2)c2c(c1)S(=O)(=O)CC2(O)c1ccccc1` (configuration not stated): in assay [1] (Canis lupus familiaris), the result was inactive.
On to `NS(=O)(=O)c1cc(C(=O)O)c(NCc2ccco2)cc1Oc1ccccc1`, for which the Activity amounted to 25 mL/kg in assay [9]; 2.9 milliequivalent/kg in assay [10]; 0.45 milliequivalent/kg in assay [11]; 3.8 milliequivalent/kg in [12]; 8 mL/kg in assay [22]; 0.6 milliequivalent/kg in assay [23]. Further, the results for the Activity in [24] and in assay [25] were 0.27 milliequivalent/kg and 0.8 milliequivalent/kg, respectively.
`CS(=O)(=O)c1cc(C(=O)O)cc(NCc2ccccc2)c1Nc1ccccc1`: the outcome in assay [2] (Canis lupus familiaris) was inactive.
`CS(=O)(=O)c1cc(C(=O)O)cc(NCc2ccccc2)c1C(=O)c1ccccc1`: the Activity in [26] stood at 33 mL/kg; in assay [27], 3.9 milliequivalent/kg; in [28], 0.64 milliequivalent/kg; in assay [29], 4.7 milliequivalent/kg; in [13], 12 mL/kg; in [14], 1.2 milliequivalent/kg. Moreover, the Activity in assay [15] amounted to 0.28 milliequivalent/kg; in assay [16], 1.7 milliequivalent/kg.
As to `CS(=O)(=O)c1cc(C(=O)O)cc(SCc2ccccc2)c1Sc1ccccc1`, the result in assay [26] (Canis lupus familiaris) was inactive.
Turning to `CS(=O)(=O)c1cc(C(=O)O)c(NCc2ccco2)cc1Oc1ccccc1`, the Activity in assay [1] amounted to 14 mL/kg; in assay [6] it was 1.7 milliequivalent/kg; in assay [7], 0.39 milliequivalent/kg; in assay [8], 2 milliequivalent/kg.
For `CSc1cc(C(=O)O)cc(NCc2ccccc2)c1Oc1ccccc1`, in that order: 7 mL/kg, 0.6 milliequivalent/kg, 0.21 milliequivalent/kg and 0.9 milliequivalent/kg.
In the case of `CCCCNc1cc(C(=O)O)cc(S(N)(=O)=O)c1Oc1ccccc1` [BUMETANIDE], the Activity was 39 mL/kg in [2]; 4 milliequivalent/kg in assay [3]; 0.84 milliequivalent/kg in [4]; 5.7 milliequivalent/kg in assay [5]; 26 mL/kg in assay [9]; 2.4 milliequivalent/kg in assay [10]. Also, the Activity in assay [11] amounted to 0.44 milliequivalent/kg; in assay [12] it was 3.5 milliequivalent/kg; in [13], 31 mL/kg; in assay [14], 3.3 milliequivalent/kg; in [15], 0.49 milliequivalent/kg; in assay [16], 4.5 milliequivalent/kg. The Activity was found to be 10 mL/kg in assay [22], 0.92 milliequivalent/kg in assay [23], 0.27 milliequivalent/kg in [24] and 1.4 milliequivalent/kg in [25].
On to `CS(=O)(=O)c1cc(C(=O)O)c(NCc2ccccc2)cc1Sc1ccccc1`, for which the result in assay [17] was inactive.
As to `CCCCOc1cc(C(=O)O)cc(S(C)(=O)=O)c1C(=O)c1ccccc1`, the Activity in [26] is 24 mL/kg; in assay [27], 2.6 milliequivalent/kg; in assay [28], 0.54 milliequivalent/kg; in assay [29] it was 3.4 milliequivalent/kg; in [13] it was 4 mL/kg; in [14] it was 0.5 milliequivalent/kg. Moreover, the Activity in assay [15] turned out to be 0.22 milliequivalent/kg; in assay [16], 0.8 milliequivalent/kg.
With `C[S+]([O-])c1cc(C(=O)O)cc(NCc2ccccc2)c1Oc1ccccc1` (configuration not stated), the Activity in [1] is 7 mL/kg; in assay [6], 0.9 milliequivalent/kg; in assay [7] it was 0.17 milliequivalent/kg; in assay [8], 1.1 milliequivalent/kg.
Take `CCCCSc1cc(C(=O)O)cc(S(C)(=O)=O)c1Oc1ccccc1`: the Activity in assay [1] turned out to be 21 mL/kg; in assay [6], 3 milliequivalent/kg; in assay [7], 0.64 milliequivalent/kg; in assay [8] it was 3.2 milliequivalent/kg. Besides, in assay [9] (Canis lupus familiaris), the outcome was inactive.
Turning to `CCCCNc1cc(C(=O)O)cc2c1C(O)(c1ccccc1)CS2(=O)=O` (configuration not stated), the result in [1] (Canis lupus familiaris) was inactive.
